Reference: the supplement of paper PMC10307832

Tests used:
[1] = compound: CC1=CC(=C(N1C2=CC=C(C=C2)Cl)C)C(=O)CN3CCCCC3 [IU1-47]; test: relative viability (nuclei count vs DMSO), 5 days (fraction); higher = more cells survive
Method in brief: (§1)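 Cells of lung cancer lines were placed in 1536-well plates and kept overnight at 37 °C. Pinning then delivered five library-drug doses (not always all listed), spaced by √10, onto plates anchored with vehicle, and the cells were left 5 days without changing medium. One step fixed, permeabilised and stained them with Hoechst, and MetaXpress counted nuclei in 4× images. Viability, as a median over plates, is treated-well nuclei divided by vehicle-well nuclei, with acceptance only at control CV below 25% and at least one doubling.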

[2] = compound: Cc1nc(C(=O)NCC(=O)O)c(O)c2ccc(Oc3ccccc3)cc12 [FG-4592]; test: as above
Method in brief: as §1

| Cell Line | relative viability ([1]; 0.08 µM) | relative viability ([1]; 0.253 µM) | relative viability ([1]; 0.8 µM) | relative viability ([1]; 8 µM) | relative viability ([2]; 0.08 µM) | relative viability ([2]; 0.253 µM) | relative viability ([2]; 0.8 µM) | relative viability ([2]; 2.53 µM) | relative viability ([2]; 8 µM) | relative viability ([1]; 2.53 µM) |
| --- | --- | --- | --- | --- | --- | --- | --- | --- | --- | --- |
| EPLC-272H | 1.02 | 1.05 | 0.933 | 0.806 | 0.886 | 0.777 | 0.7 | 0.901 | 0.889 | – |
| H3255 | 1.11 | 1.16 | 1.02 | 0.975 | 1.02 | 0.87 | 0.926 | 0.9 | 1.08 | 0.74 |
| HARA | 0.964 | 0.935 | 1.09 | 0.817 | 0.782 | 0.752 | 0.822 | 1.01 | 1.13 | 0.68 |
| HCC-15 | 1.1 | 1.08 | 1.05 | 0.976 | 0.978 | 0.922 | 0.954 | 0.95 | 1.05 | 0.678 |
| HCC-44 | 0.964 | 1.03 | 1.03 | 1.02 | 1.01 | 0.939 | 0.806 | 1.05 | 1.04 | 0.945 |
| HCC-78 | 0.97 | 0.953 | 1.03 | 0.889 | 0.893 | 0.746 | 0.972 | 0.916 | 1.01 | 0.874 |
| HCC-366 | 1.03 | 0.969 | 1.04 | 0.879 | 0.798 | 1 | 1.02 | 0.964 | 1.05 | 1.04 |
| HCC-827 | 1.09 | 1.05 | 1.05 | 1.09 | 1.03 | 0.988 | 1.02 | 1.02 | 1.03 | 1.08 |
| HOP-62 | 1.09 | 1.05 | 1.09 | 1.09 | 0.997 | 0.957 | 0.943 | 0.96 | 1.01 | 0.779 |
| IA-LM | 1.11 | 1.08 | 1.08 | 0.884 | 0.913 | 0.933 | 0.894 | 0.859 | 0.764 | 1.01 |
| LC-2-ad | 0.981 | 0.997 | 1.07 | 0.889 | 0.997 | 0.924 | 0.973 | 0.925 | 1.09 | 0.673 |
| LCLC-97TM1 | 0.954 | 1.22 | 1.06 | 0.834 | 0.918 | 0.901 | 0.791 | 0.924 | 0.873 | 0.589 |
| LCLC-103H | 1.03 | 1.1 | 0.871 | 0.933 | 0.955 | 0.971 | 0.807 | 0.865 | 0.938 | 0.976 |
